Test systems include SW-620 colon; A549 NSCLC; OVCAR-3 ovarian; M14 melanoma; RPMI-8226 leukemia; A498 renal; SNB-19 CNS; K-562 leukemia; HOP-92 NSCLC; T-47D breast.
Test in all cases: DTP human tumour cell line panel, 48 h

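Dose response: 5 concentrations. Exposure: 48 h. Format: 96-well plates. Endpoint: linear interpolation; highest concentration if not reached. TGI: total growth inhibition.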 Where only a bound is given, the exact number is not on record here.

By TGI is commonly meant the concentration giving total growth inhibition. Higher therefore signals less potent growth arrest. Turning to `CC(=O)Oc1ccc2c(C)cc(=O)oc2c1OC(C)=O`, the concentration for total growth inhibition (TGI) in the experiment with SW-620 colon is greater than 100 µM; with A549 NSCLC, greater than 100 µM; with OVCAR-3 ovarian, greater than 100 µM; in the experiment on M14 melanoma, greater than 100 µM; in the experiment on RPMI-8226 leukemia, 89.9 µM; in the experiment on A498 renal, 76.5 µM. Also, the TGI in the experiment with SNB-19 CNS and in the experiment with K-562 leukemia was greater than 100 µM in each case.
`O=C1C(c2c(O)[nH]c3ccc(F)cc23)=Nc2ccccc21`: the TGI is greater than 100 µM in the experiment on SW-620 colon; greater than 100 µM in the experiment with A549 NSCLC; greater than 100 µM in the experiment on OVCAR-3 ovarian; greater than 100 µM with M14 melanoma; greater than 100 µM with RPMI-8226 leukemia; 65.6 µM in the experiment on HOP-92 NSCLC. Moreover, the TGI with SNB-19 CNS and in the experiment with K-562 leukemia was greater than 100 µM each time.
Consider `COc1ccc(S(=O)(=O)c2nnc(S(=O)(=O)Cc3ccccc3)s2)cc1`, for which the TGI in the experiment with SW-620 colon is 44 µM; with A549 NSCLC, 49.3 µM; in the experiment with OVCAR-3 ovarian, greater than 100 µM; with M14 melanoma, 33.1 µM; in the experiment on RPMI-8226 leukemia, greater than 100 µM; with A498 renal, 39.9 µM. Further, the TGI in the experiment with SNB-19 CNS was 36.8 µM; in the experiment with K-562 leukemia, greater than 100 µM; in the experiment with T-47D breast it was 91.9 µM.
Take `CN(CC(=O)O)c1ncc2c(n1)CCCC2`: the TGI in the experiment on SW-620 colon, with A549 NSCLC, with OVCAR-3 ovarian, in the experiment with M14 melanoma, with RPMI-8226 leukemia and with HOP-92 NSCLC was greater than 100 µM in each case. Besides, the TGI with A498 renal, in the experiment on SNB-19 CNS and in the experiment with K-562 leukemia was greater than 100 µM throughout.
With `Cn1c(=O)n(C2(C)C[Se]C2)c2ccccc21`, the TGI in the experiment with SW-620 colon, in the experiment with A549 NSCLC, with M14 melanoma, with RPMI-8226 leukemia, with HOP-92 NSCLC and in the experiment with A498 renal was greater than 100 µM each time. Besides, the TGI in the experiment on SNB-19 CNS and in the experiment on K-562 leukemia was greater than 100 µM throughout.
On to `CC1CCC(C(C)C)C(OC(=O)NCn2cc(-c3ccccc3)nn2)C1` (centres undefined), for which the TGI in the experiment on SW-620 colon, with A549 NSCLC, with M14 melanoma, in the experiment on RPMI-8226 leukemia, in the experiment on HOP-92 NSCLC and with SNB-19 CNS was greater than 100 µM in each case. In the experiment with K-562 leukemia, this compound returned a TGI greater than 100 µM.
Take `CC(C)(C)OC(=O)[C@H]1CCC(=S)N1Cc1ccccc1`: the TGI in the experiment on SW-620 colon, in the experiment with A549 NSCLC, in the experiment on OVCAR-3 ovarian, with M14 melanoma, in the experiment with RPMI-8226 leukemia and with HOP-92 NSCLC was greater than 100 µM in each case. The TGI in the experiment on A498 renal and in the experiment on SNB-19 CNS was greater than 100 µM in each case.
For `CN1C2CCC1CC(=CCOC(c1ccc(F)cc1)c1ccc(F)cc1)C2`, the TGI with SW-620 colon is greater than 100 µM; with A549 NSCLC, 32.4 µM; in the experiment with OVCAR-3 ovarian, 31.3 µM; with M14 melanoma, 31.9 µM; with RPMI-8226 leukemia it was 38 µM; with A498 renal it was 28.7 µM. In addition, the values for the TGI in the experiment on SNB-19 CNS, in the experiment with K-562 leukemia and in the experiment with T-47D breast were 37.8 µM, 28 µM and 35.1 µM, respectively.
For `CCOC(=O)C12OC(CCC1=O)C(C(=O)OC)=C2C(=O)OC` (centres undefined), the TGI in the experiment with SW-620 colon, in the experiment on A549 NSCLC, in the experiment on OVCAR-3 ovarian, in the experiment on M14 melanoma, in the experiment on RPMI-8226 leukemia and in the experiment on A498 renal was greater than 10 µM each time. The TGI in the experiment with SNB-19 CNS, with K-562 leukemia and in the experiment with T-47D breast was greater than 10 µM throughout.
Turning to `O=C(Nc1nc(C23CC4CC(CC(C4)C2)C3)cs1)c1cc2ccc(O)cc2oc1=O`, the TGI was 22 µM in the experiment with SW-620 colon; 38.3 µM in the experiment with A549 NSCLC; 60.5 µM with OVCAR-3 ovarian; 32.6 µM with RPMI-8226 leukemia; 15.3 µM with HOP-92 NSCLC; 28.6 µM with A498 renal. Also, the figures for the TGI in the experiment with SNB-19 CNS and in the experiment on K-562 leukemia were 80.6 µM and 68.2 µM, respectively.
Consider `O=C(O)[C@@H]1CCS(=O)(=O)N1`, for which the TGI in the experiment with SW-620 colon, with A549 NSCLC, with OVCAR-3 ovarian, with M14 melanoma, with A498 renal and in the experiment with SNB-19 CNS was greater than 100 µM throughout. This compound also registered a TGI in the experiment with T-47D breast greater than 100 µM.
With `CCOC(=O)c1nnc2c(C(=O)OCC)c3ccccc3n2c1N`, the concentration for total growth inhibition (TGI) in the experiment on SW-620 colon was greater than 100 µM; in the experiment on A549 NSCLC, greater than 100 µM; in the experiment with OVCAR-3 ovarian, greater than 100 µM; in the experiment with M14 melanoma, greater than 100 µM; in the experiment on RPMI-8226 leukemia, 6.39 µM; in the experiment on A498 renal, 60.8 µM. Further, the TGI in the experiment on SNB-19 CNS, in the experiment with K-562 leukemia and in the experiment on T-47D breast was greater than 100 µM each time.
As for `NNC(=O)c1n[nH]nc1C(=O)NN`, the TGI in the experiment with A549 NSCLC, in the experiment with OVCAR-3 ovarian, in the experiment on M14 melanoma, with RPMI-8226 leukemia, in the experiment on SNB-19 CNS and in the experiment with K-562 leukemia was greater than 100 µM each time.
Consider `C[C@H](CCC(=O)O)[C@H]1CC[C@H]2[C@@H]3CC[C@@H]4C[C@H](O)CC[C@]4(C)[C@H]3C[C@H](O)[C@]12C`, for which the concentration for total growth inhibition (TGI) was greater than 100 µM with SW-620 colon; greater than 100 µM in the experiment on A549 NSCLC; 52.1 µM in the experiment on OVCAR-3 ovarian; greater than 100 µM in the experiment with M14 melanoma; 57.6 µM with RPMI-8226 leukemia; greater than 100 µM in the experiment with A498 renal. The TGI in the experiment with SNB-19 CNS was greater than 100 µM; in the experiment with K-562 leukemia, greater than 100 µM; in the experiment on T-47D breast it was 91.2 µM.
Take `c1ccc(CCNc2ccccn2)nc1`: the TGI with SW-620 colon, with A549 NSCLC, in the experiment on OVCAR-3 ovarian, in the experiment on M14 melanoma, with HOP-92 NSCLC and in the experiment with A498 renal was greater than 100 µM in each case. In the experiment with SNB-19 CNS, this compound displayed a TGI greater than 100 µM.
`Nc1ncnc2c1ncn2[C@@H]1C[C@@H]1CO`: the TGI with SW-620 colon, in the experiment on A549 NSCLC, in the experiment on OVCAR-3 ovarian, in the experiment with RPMI-8226 leukemia, with A498 renal and in the experiment with SNB-19 CNS was greater than 100 µM in each case. Further, the TGI in the experiment on K-562 leukemia and with T-47D breast was greater than 100 µM throughout.

Values taken from PubChem BioAssay (NCI).
